# In US20210024483A1, “HETEROCYLCOALKENYL DERIVATIVES USEFUL AS AGONISTS OF THE GPR120 AND / OR GPR40” (Janssen Pharmaceutica NV, priority 2018, published 2021):
# Tests used:
# [1] = target: T1, Human GPR120 short form (short splice variant, NM_001195755.1) (Homo sapiens, UniProt Q5NUL3); experiment: Human GPR120 Calcium Flux Assay; type: cell-based; conditions: HEK-293 cells, 4200 cells/well, read-out: Human GPR120 Calcium Flux Assay Procedure B EC50
# T1 construct: expressed in transfected cells; host or cells: HEK293
# T1 sequence (Q5NUL3 1-361): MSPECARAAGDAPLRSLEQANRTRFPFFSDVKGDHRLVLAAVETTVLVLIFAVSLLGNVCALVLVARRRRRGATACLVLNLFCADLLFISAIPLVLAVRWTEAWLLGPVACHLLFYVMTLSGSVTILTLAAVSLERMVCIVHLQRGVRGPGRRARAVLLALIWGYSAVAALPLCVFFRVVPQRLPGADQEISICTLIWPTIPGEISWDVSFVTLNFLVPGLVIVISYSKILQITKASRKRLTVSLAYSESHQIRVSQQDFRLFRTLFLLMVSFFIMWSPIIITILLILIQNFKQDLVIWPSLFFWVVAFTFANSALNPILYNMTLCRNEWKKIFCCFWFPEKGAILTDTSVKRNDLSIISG
# Excerpt: In Vitro Assay: Human GPR120 in Calcium Flux Assay
# This in vitro assay serves to assess test compound agonist activity against the short splice variant (SVS with Accession number NM_001195755.1 confirmed by sequencing data) of the GPR120 receptor. The Human Short splice variant #2 (NM_001195755.1) is missing an in-frame coding exon compared to variant 1 (the Human Long splice variant NM_181745.3), resulting in a shorter isoform (GPR120-S) lacking a 16 aa protein segment compared to isoform GPR120-L. The assay platform utilizes HEK-293 cells stably transfected to express the Human GPR120 short form. These cells are first loaded with the Ca^+2 sensitive dye, Fluo-4 NW. Upon stimulation, intracellular released Ca^+2 can bind to the dye and alter its fluorescence intensity. This increase in fluorescence signal, and thus the flux in intracellular [Ca^2+], is detected and quantitated by fluorescence imaging using a FLIPR reader. The effect of the agonist is measured as a function of concentration and used to calculate an EC50 based upon a response curve. […]
# In this procedure 4200 cells/well were employed.
# A Human GPR120 clone (Genbank accession number NM_001195755.1) was placed into the pcDNA3.1 mammalian expression vector carrying the neomycin resistance gene. A stable mammalian cell was generated by placing the above clone into a HEK293 background. Clonal cells responding to long chain fatty acids had expression levels of GPR120 confirmed by RT-qPCR. Human HEK-GPR120 cells were cultured in Dulbecco's Modified Eagle's Medium (DMEM)/F12 medium supplemented with 10% fetal bovine serum (FBS), 1% L-Glutamine and 1% penicillin/streptomycin and 0.5 mg/ml G-418. Cells were split 2 times a week to keep the cells in the log-phase growth.
# In preparation for the assay, HEK cells stably transfected with Human GPR120 (2.5K cells per well in 25 uL growth medium) were seeded into 384-well plates and then incubated overnight (37° C., 5% CO2). The next day, the media was changed to 20 μL assay buffer and the cell starved for 1 h at 37° C. The dye loading solution (2× dye) was prepared using 10 mL assay buffer, 100 μL of 250 mM probenecid, 1 bottle of Component A, and 20 μl of dye in DMSO. Twenty μL of the 2× dye loading buffer was then added to each well. The plates were incubated at 37° C. for 30 min, then at room temperature for an additional 15 minutes, before performing the assay on FLIPR.
# The assay was performed on a FLIPR plate reader using the following parameters. Baseline was read for 10 seconds at 1 sec intervals. The program was set to transfer 10 μL of ligand from compound plate to cell plate after baseline reading. Aspiration was executed at: 10 μL/sec speed, 4.6 μL height; Dispensing was executed at: 30 μL/sec speed, 45 μL height. After compound addition, each well was read for 300 sec, with measurements collected at 1 sec intervals.
# The kinetic data from the FLIPR was based upon a 5 minute window for data collection. The fluorescence of each sample well was used for individual calculations of a normalized RFU value, which was defined as maximum response minus the minimum response. The normalized fluorescence reading (RFU) was calculated as follows:
# The data were fitted to a sigmoidal dose-response curve with a variable Hill slope (<2) using nonlinear regression with GraphPad Prism 5.0 to calculate the EC50 values. The Fitting Equation was: Y=Bottom+(Top−Bottom)/(1+10^((Log EC50−X)*HillSlope)), where X is the log of the concentration and Y is the response.
# GPR40 = GPR40 (UniProt O14842); experiment: GPR40 Calcium Flux Assay; type: cell-based; conditions: transfected HEK293 cells stably expressing human or rat GPR40; species not given
# Procedure: Biological Example 3: In Vitro Assay
# Compounds were tested in a calcium flux assay using transfected HEK293 cells stably expressing either human GPR40 or rat GPR40. Human GPR40 expressing cells were cultured in DMEM-High Glucose media supplemented with 10% fetal bovine serum, 1×L-Glutamine, 1× Penicillin/Streptomycin and 500 μg/mL G418. Rat GPR40 expressing cells were cultured in DMEM-High Glucose media supplemented with 10% fetal bovine serum and 1 μg/mL puromycin. Cells were plated into poly-D-lysine coated 384-well plates and cultured overnight in a 37° C. humidified tissue culture incubator under 5% CO2/90% O2 atmosphere.
# On the day of the experiment, the culture media was replaced with assay buffer (HBSS, 20 mM HEPES, 0.1% BSA) and the cells incubated at 37° C. for 1 h. Calcium-sensitive fluorescent dye (Fluo 8 No-Wash Calcium Dye, ABD Bioquest) was then added and the cells incubated for another 30 min at 37° C. followed by 15 min at room temperature while protected from the light. The cell plate and a plate of diluted compounds of Formula (I) were loaded into a fluorescent plate reader that added compounds onto the cells while measuring the fluorescence intensity of each well. The plate reader recorded fluorescence intensity at 1 second intervals for 8 min and provided the data for analysis in an Excel format. EC50 values were calculated using Prism (GraphPad) software.
Structure (SMILES),EC50 [1],EC50 (GPR40)
O=C(O)CCc1ccc(OCC2=C(C3CCCC3)CCOC2)cc1 [compound 738],927 nM,2680 nM
Cc1c(CCC(=O)O)ccc(OCC2=C(C3CCC3)CCOC2)c1C [compound 724],275 nM,> 10000 nM
Cc1ccc(C2=C(COc3ccc(CCC(=O)O)c(C(F)(F)F)c3)COCC2)cc1C [compound 683],1060 nM,
O=C(O)CCc1ccc(OCC2=C(C3CCCC3)CCOC2)cc1Cl [compound 727],1600 nM,386 nM
O=C(O)CCc1ccc(OCC2=C(C3CCCCC3)CCOC2)cc1C(F)(F)F [compound 729],2680 nM,847 nM
O=C(O)CCc1ccc(OCC2=C(Cc3ccc(Cl)cc3)CCOC2)cc1 [compound 695],> 5000 nM,3190 nM
O=C(O)CCc1ccc(OCC2=C(C3C=CCC3)CCOC2)cc1 (stereo not drawn) [compound 740],1140 nM,2080 nM
Cc1cc(C)c(C2=C(COc3ccc(CCC(=O)O)c(C(F)(F)F)c3)COCC2)cc1C [compound 681],> 5000 nM,
C=C(C1=C(COc2ccc(CCC(=O)O)c(C(F)(F)F)c2)COCC1)c1ccc(C(F)(F)F)cc1 [compound 705],> 5000 nM,73 nM
C=C(C1=C(COc2ccc(CCC(=O)O)c(C(F)(F)F)c2)COCC1)c1ccc(F)cc1 [compound 703],> 5000 nM,68 nM
COc1cc(Cl)ccc1C1=C(COc2ccc(CCC(=O)O)c(C)c2C)COCC1 [compound 662],2200 nM,
Cc1c(CCC(=O)O)ccc(OCC2=C(c3ccc(F)cc3F)CCOC2)c1C [compound 660],149 nM,
Cc1ccc(C2=C(COc3ccc(CCC(=O)O)cc3)CCOCC2)cc1F [compound 783],1360 nM,7880 nM
Cc1cc(CCC(=O)O)ccc1OCC1=C(c2ccc(F)cc2)C[S+]([O-])C1 (stereo not drawn) [compound 627],> 5000 nM,
C=C(C1=C(COc2ccc(CCC(=O)O)cc2)COCC1)c1ccc(F)cc1 [compound 702],> 5000 nM,1560 nM
COc1cccc(C2=C(COc3ccc(CCC(=O)O)c(C)c3C)COCC2)c1 [compound 656],868 nM,
Cc1cc(C2=C(COc3ccc(CCC(=O)O)c(C(F)(F)F)c3)COCC2)ccc1Cl [compound 679],1920 nM,
Cc1ccc(C2=C(COc3ccc(CCC(=O)O)c(C(F)(F)F)c3)COCC2)cc1F [compound 685],970 nM,829 nM
O=C(O)CCc1cc(F)c(OCC2=C(C3CCCC3)CCOC2)c(F)c1 [compound 736],615 nM,> 10000 nM
O=C(O)CCc1ccc(OCC2=C(Cc3ccccc3)CCOC2)cc1C(F)(F)F [compound 678],> 5000 nM,
Cc1ccc(C2=C(COc3ccc(CCC(=O)O)c(C)c3C)COCC2)cc1 [compound 655],94 nM,
Cc1cc(Cl)ccc1C1=C(COc2ccc(CCC(=O)O)c(C(F)(F)F)c2)COCC1 [compound 682],> 5000 nM,
Cc1c(CCC(=O)O)ccc(OCC2=C(c3cccnc3)CCOC2)c1C [compound 654],> 5000 nM,
CC(C)Oc1ccccc1C1=C(COc2ccc(CCC(=O)O)c(C(F)(F)F)c2)COCC1 [compound 677],> 5000 nM,
CC1(C)CCC=C1C1=C(COc2ccc(CCC(=O)O)c(C(F)(F)F)c2)COCC1 [compound 670],> 5000 nM,
Cc1c(CCC(=O)O)ccc(OCC2=C(c3ccccc3F)CCOC2)c1C [compound 651],202 nM,
Cc1c(CCC(=O)O)ccc(OCC2=C(c3ccc(Cl)c(F)c3)CCOC2)c1C [compound 663],170 nM,
COc1ccccc1C1=C(COc2ccc(CCC(=O)O)c(C(F)(F)F)c2)COCC1 [compound 676],> 5000 nM,
O=C(O)CCc1ccc(OCC2=C(c3ccccc3OC(F)(F)F)CCOC2)cc1C(F)(F)F [compound 674],> 5000 nM,
Cc1ccc(C2=C(COc3ccc(CCC(=O)O)c(C(F)(F)F)c3)COCC2)cc1 [compound 668],498 nM,

# The next lines start with the values.
EC50 [1],EC50 (GPR40),Structure (SMILES)
832 nM,,Cc1ccc(C2=C(COc3ccc(CCC(=O)O)c(C(F)F)c3)COCC2)cc1 [compound 665]
818 nM,93 nM,O=C(O)CCc1ccc(OCC2=C(C3CCCC3)CCOC2)cc1C(F)(F)F [compound 731]
> 5000 nM,335 nM,COc1ccc(CC2=C(COc3ccc(CCC(=O)O)c(C(F)(F)F)c3)COCC2)cc1 [compound 698]
527 nM,,Cc1cc(C2=C(COc3ccc(CCC(=O)O)c(C)c3C)COCC2)ccc1F [compound 661]
> 5000 nM,218 nM,O=C(O)CCc1ccc(OCC2=C(Cc3ccc(Cl)cc3)CCOC2)cc1C(F)(F)F [compound 696]
1930 nM,> 10000 nM,O=C(O)CCc1cc(F)c(OCC2=C(Cc3ccccc3)CCOC2)c(F)c1 [compound 714]
> 5000 nM,,O=C(O)CCc1ccc(OCC2=C(c3cccc4c3OC(F)(F)O4)CCOC2)cc1C(F)(F)F [compound 673]
10100 nM,744 nM,CCC(C)C1=C(COc2ccc(CCC(=O)O)c(C(F)(F)F)c2)COCC1 (stereo not drawn) [compound 734]
> 5000 nM,38 nM,C=C(C1=C(COc2ccc(CCC(=O)O)c(C(F)(F)F)c2)COCC1)c1ccccc1Cl [compound 706]
> 5000 nM,,Cc1cccc(C)c1C1=C(COc2ccc(CCC(=O)O)c(Cl)c2)COCC1 [compound 669]
2750 nM,,Cc1ccc(C2=C(COc3cc(C(F)(F)F)c(CCC(=O)O)c(C(F)(F)F)c3)COCC2)cc1 [compound 666]
115 nM,,Cc1c(CCC(=O)O)ccc(OCC2=C(c3ccc(Cl)cc3F)CCOC2)c1C [compound 667]
1810 nM,> 10000 nM,CC(C)CC1=C(COc2c(F)cc(CCC(=O)O)cc2F)COCC1 [compound 733]
> 5000 nM,,Cc1cccc(C)c1C1=C(COc2ccc(CCC(=O)O)c(C(F)(F)F)c2)COCC1 [compound 671]
> 5000 nM,,COc1cc(C2=C(COc3ccc(CCC(=O)O)c(C)c3C)COCC2)ccc1Cl [compound 664]
229 nM,,Cc1cc(CCC(=O)O)ccc1OCC1=C(c2ccccc2)COC1 [compound 630]
2630 nM,,O=C(O)CCc1ccc(OCC2=C(c3ccc(Cl)c(Cl)c3)CCOC2)cc1C(F)(F)F [compound 680]
